# What was measured:
# [1] = test system: Salmonella typhimurium; assay: Antibacterial activity against Salmonella typhimurium DT104 assessed as inhibition of bacterial growth incubated for 18 hrs by CLSI protocol based microbroth dilution method; assay type: functional, Salmonella enterica subsp. enterica serovar Typhimurium; conditions: Salmonella enterica
# [2] = test system: MIA PaCa-2; assay: Growth inhibition of human MIA PaCa-2 cells measured for 48 hrs by SRB assay; assay type: functional
# [3] = target: Mushroom tyrosinase (Agaricus bisporus, UniProt O42713+Q00024+C7FF04+C7FF05); assay: Inhibition of mushroom tyrosinase using L-DOPA as substrate by spectrophotometric analysis; assay type: protein assay
# [4] = test system: Escherichia coli; assay: Antibacterial activity against Escherichia coli assessed as reduction in bacterial growth incubated for 24 hrs by Mueller-Hinton agar based analysis; assay type: functional
# [5] = test system: Staphylococcus epidermidis; assay: Antimicrobial activity against Staphylococcus epidermidis ATCC 12228 assessed as reduction in bacterial growth incubated for 24 hrs by Mueller-Hinton agar based analysis; assay type: functional
# [6] = test system: Pseudomonas aeruginosa; assay: Antibacterial activity against Pseudomonas aeruginosa ATCC 15442 assessed as reduction in bacterial growth incubated for 24 hrs by Mueller-Hinton agar based analysis; assay type: functional
# [7] = test system: Staphylococcus aureus; assay: Antimicrobial activity against Staphylococcus aureus […] assessed as reduction in bacterial growth incubated for 24 hrs by Mueller-Hinton agar based analysis; assay type: functional
# [8] = target: T1, Acetylcholinesterase (Homo sapiens, UniProt P22303); assay: Inhibition of AChE (unknown origin)
# [9] = target: Cholinesterase (Homo sapiens, UniProt P06276); assay: Inhibition of human BChE using butyrylthiocholine iodide as substrate incubated for 15 mins by spectrophotometric Ellman's method
# [10] = test system: Phytophthora capsici; assay: Antifungal activity against Phytophthora capsici; assay type: functional, organism-based
# [11] = target: T1, Acetylcholinesterase; assay: Inhibition of AChE (unknown origin) using acetylthiocholine iodide as substrate by Ellman's method
# [12] = test system: Escherichia coli; assay: Antibacterial activity against Escherichia coli assessed as reduction in bacterial growth by broth microdilution method; assay type: functional
# [13] = Antioxidant activity assessed as DPPH radical scavenging activity incubated for 20 mins by spectrophotometric method; assay type: functional
# [14] = test system: Salmonella typhimurium; assay: Antibacterial activity against Salmonella typhimurium DT104 assessed as reduction in bacterial growth inhibition; assay type: functional, Salmonella enterica subsp. enterica serovar Typhimurium
# [15] = test system: Candida albicans; assay: Fungicidal activity against Candida albicans assessed as reduction in fungal growth measured after 48 hrs by CLSI protocol based microdilution method; assay type: functional
# [16] = test system: Bacillus subtilis; assay: Antibacterial activity against Bacillus subtilis assessed as zone of inhibition; assay type: functional
# [17] = test system: Proteus vulgaris; assay: Antimicrobial activity against Proteus vulgaris NCIM 2813 assessed as zone of inhibition incubated for 24 hrs by agar diffusion method; assay type: functional
# [18] = test system: Escherichia coli; assay: Antibacterial activity against Escherichia coli assessed as reduction in bacterial growth inhibition; assay type: functional
# [19] = test system: Candida albicans; assay: Antifungal activity against Candida albicans assessed as reduction in fungal growth incubated for 24 hrs by broth microdilution method; assay type: functional
# [20] = test system: Salmonella enteritidis; assay: Antibacterial activity against Salmonella enterica subsp. enterica serovar Enteritidis assessed as reduction in bacterial growth inhibition; assay type: functional
# [21] = test system: Clostridium perfringens; assay: Antibacterial activity against Clostridium perfringens assessed as reduction in bacterial growth inhibition; assay type: functional
# [22] = test system: Escherichia coli; assay: microbe, parasite or virus in culture; conditions: ATCC 25922, 24 h
# [23] = Antibacterial activity against Salmonella enterica subsp. enterica serovar Pullorum assessed as inhibition of bacterial growth incubated for 18 hrs by CLSI protocol based microbroth dilution method; assay type: functional
# [24] = test system: Staphylococcus aureus; assay: Antibacterial activity against Staphylococcus aureus ATCC 25923 assessed as zone of inhibition by agar diffusion method; assay type: functional
# [25] = test system: Helicobacter pylori; assay: Antibacterial activity against Helicobacter pylori assessed as reduction in bacterial growth incubated for 24 hrs by broth micro-dilution method; assay type: functional
# [26] = test system: Clostridium perfringens; assay: Antibacterial activity against Clostridium perfringens assessed as bacterial growth inhibition after 24 hrs by microdilution method; assay type: functional
# Chain of Cholinesterase (P06276 whole entry): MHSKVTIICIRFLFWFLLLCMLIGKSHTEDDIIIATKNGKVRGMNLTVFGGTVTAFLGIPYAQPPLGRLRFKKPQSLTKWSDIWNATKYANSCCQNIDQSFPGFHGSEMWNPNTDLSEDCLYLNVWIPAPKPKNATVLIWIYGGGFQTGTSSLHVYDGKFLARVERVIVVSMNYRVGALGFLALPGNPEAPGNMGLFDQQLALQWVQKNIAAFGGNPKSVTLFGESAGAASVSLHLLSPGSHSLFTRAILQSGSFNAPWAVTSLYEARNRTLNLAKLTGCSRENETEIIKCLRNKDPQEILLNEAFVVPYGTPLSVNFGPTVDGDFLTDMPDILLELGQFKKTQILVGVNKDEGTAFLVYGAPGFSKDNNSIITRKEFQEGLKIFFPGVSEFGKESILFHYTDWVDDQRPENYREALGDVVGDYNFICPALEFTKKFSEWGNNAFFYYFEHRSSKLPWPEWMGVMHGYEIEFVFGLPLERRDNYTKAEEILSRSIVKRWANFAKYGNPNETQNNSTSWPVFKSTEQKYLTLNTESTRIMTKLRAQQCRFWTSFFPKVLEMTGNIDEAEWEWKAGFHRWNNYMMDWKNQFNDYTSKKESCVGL
# T1 sequence (P22303 whole entry): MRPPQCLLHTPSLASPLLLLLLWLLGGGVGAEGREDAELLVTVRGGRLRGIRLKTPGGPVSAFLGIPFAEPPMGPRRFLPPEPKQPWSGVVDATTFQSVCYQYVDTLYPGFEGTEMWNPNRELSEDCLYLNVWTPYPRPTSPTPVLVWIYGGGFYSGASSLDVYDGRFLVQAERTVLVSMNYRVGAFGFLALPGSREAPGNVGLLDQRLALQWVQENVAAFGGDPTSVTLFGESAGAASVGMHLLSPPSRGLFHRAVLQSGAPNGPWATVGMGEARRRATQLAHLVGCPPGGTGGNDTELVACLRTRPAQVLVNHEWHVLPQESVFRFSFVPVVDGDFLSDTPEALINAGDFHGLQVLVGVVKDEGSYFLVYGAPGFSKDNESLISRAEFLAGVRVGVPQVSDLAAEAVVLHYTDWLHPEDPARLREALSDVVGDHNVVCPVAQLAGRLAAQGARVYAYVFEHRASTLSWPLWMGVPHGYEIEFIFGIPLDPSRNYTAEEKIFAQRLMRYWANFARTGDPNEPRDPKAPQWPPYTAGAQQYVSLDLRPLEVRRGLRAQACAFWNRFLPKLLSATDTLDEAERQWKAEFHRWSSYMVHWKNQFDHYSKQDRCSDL
compound,measurement,setting,value
Cc1ccc(C(C)C)cc1OCC(=O)O,MIC,[1],0.1 µg/mL
Cc1ccc(C(C)C)c(/C=N/Nc2cc(Cl)ncn2)c1O,GI50,[2],80 µg/mL
Cc1ccc(C(C)C)cc1OC(=O)COC(=O)c1ccc(O)cc1,IC50,[3],14.9 µM
Cc1ccc(C(C)C)cc1OC(=O)[C@@H]1CSC(=O)N1,MIC,[4],10 µg/mL
same,MIC,[5],10 µg/mL
same,MIC,[6],10 µg/mL
same,MIC,[7],10 µg/mL
Cc1ccc(C(C)C)cc1OCC(=O)N(C(C)C)C(C)C,IC50,[8],1.93 µM
same,IC50,[9],0.05 µM
CCC(C)(NC(=O)c1cc(Cl)c(C)c(Cl)c1)C(=O)CCl (stereo not given) [ZOXAMIDE],EC50,[10],0.0268 µg/mL
Cc1cc(C)c(S(=O)(=O)N/N=C/c2c(C(C)C)ccc(C)c2O)c(C)c1,GI50,[2],10 µg/mL
Cc1ccc(C(C)C)cc1OC(=O)COC(=O)c1cccc(O)c1,IC50,[3],14.9 µM
Cc1ccc(C(C)C)cc1OCC(=O)NCCN1CCCC1,IC50,[8],1.93 µM
same,IC50,[9],0.05 µM
CCN(CC)CC(O)COc1cc(C(C)C)ccc1C (stereo not given),IC50,[11],0.136 µM
Cc1ccc(C(C)C)cc1OCC(=O)NCCNc1cccc2cccnc12,IC50,[8],1.93 µM
same,IC50,[9],0.05 µM
CNC(=O)COc1cc(C(C)C)ccc1C,IC50,[8],1.93 µM
same,IC50,[9],0.05 µM
Cc1ccc(C(C)C)cc1O [CARVACROL],MIC,[12],450 µg/mL
same,IC50,[13],267 µg/mL
same,MIC,[14],0.37 %v/v
same,MIC,[4],0.6 µg/mL
same,MFC,[15],512 µg/mL
same,inhibition zone (IZ),[16],13 mm
same,inhibition zone (IZ),[17],7 mm
same,MIC,[5],0.3 µg/mL
same,MIC,[18],<0.09 %v/v
same,MIC,[19],256 µg/mL
same,MIC,[6],5 µg/mL
same,MIC,[20],<0.09 %v/v
same,MIC,[21],<0.09 %v/v
same,MIC,[7],0.6 µg/mL
Cc1ccc(C(C)C)cc1OC(=O)COC(=O)c1ccc(O)c(O)c1,IC50,[3],15.9 µM
Cc1ccc(C(C)C)cc1OCC(=O)N/N=C/c1c(C(C)C)ccc(C)c1O,IC50,[13],0.16 µg/mL
C/C=C/C(=O)Oc1cc(C(C)C)ccc1C,MIC,[22],11.7 µg/mL
Cc1ccc(C(C)C)cc1OCC(=O)NCCC1=CCCCC1,IC50,[8],1.93 µM
same,IC50,[9],0.05 µM
CSCC[C@H](NC(C)=O)C(=O)Oc1cc(C(C)C)ccc1C,MIC,[4],10 µg/mL
same,MIC,[5],10 µg/mL
same,MIC,[6],5 µg/mL
same,MIC,[7],10 µg/mL
CCSC[C@H](NC(C)=O)C(=O)Oc1cc(C(C)C)ccc1C,MIC,[4],10 µg/mL
same,MIC,[5],10 µg/mL
same,MIC,[6],10 µg/mL
same,MIC,[7],10 µg/mL
CSC[C@H](NC(C)=O)C(=O)Oc1cc(C(C)C)ccc1C,MIC,[4],10 µg/mL
same,MIC,[5],2.5 µg/mL
same,MIC,[6],10 µg/mL
same,MIC,[7],10 µg/mL
Cc1ccc(C(C)C)cc1OC1CC[C@H](O)[C@@H](CO)O1 (stereo not given in full),MIC,[23],0.5 µg/mL
CCOc1cc(C(C)C)ccc1C,MIC,[1],0.2 µg/mL
Cc1ccc(C(C)C)cc1OC(=O)c1ccccc1,MIC,[22],11.7 µg/mL
Cc1ccc(C(C)C)cc1OCC(=O)Nc1cccc(Cl)c1,inhibition zone (IZ),[16],21 mm
same,inhibition zone (IZ),[17],16 mm
same,inhibition zone (IZ),[24],17 mm
Cc1ccc(C(C)C)cc1OCc1ccc(S(C)(=O)=O)cc1,MIC,[25],2 µg/mL
Cc1cc(S(=O)(=O)[O-])c(C(C)C)cc1O.[K+],MIC,[14],1.25 %v/v
same,MIC,[18],5 %v/v
same,MIC,[20],1.25 %v/v
same,MIC,[21],0.37 %v/v
CCS(=O)(=O)Oc1cc(C(C)C)ccc1C,EC50,[10],0.0666 µg/mL
Cc1ccc(C(C)C)cc1OCC(=O)NCCN1CCOCC1,IC50,[8],1.93 µM
same,IC50,[9],0.05 µM
Cc1ccc(C(C)C)cc1OC(=O)Cn1c([N+](=O)[O-])cnc1C,MIC,[26],2.7 µg/mL
Cc1ccc(C(C)C)cc1OC(=O)C(C)C,MIC,[22],11.7 µg/mL
CC(=O)N[C@@H](CS)C(=O)Oc1cc(C(C)C)ccc1C,MIC,[4],10 µg/mL
same,MIC,[5],5 µg/mL
same,MIC,[6],10 µg/mL
same,MIC,[7],10 µg/mL
Cc1ccc(C(C)C)cc1OCC(=O)NCc1ccc2c(c1)OCO2,IC50,[8],1.93 µM
same,IC50,[9],0.05 µM
CCN(CC)C(=O)COc1cc(C(C)C)ccc1C,IC50,[8],1.93 µM
same,IC50,[9],0.05 µM
Cc1ccc(C(C)C)cc1OCC(=O)Nc1ccc(Cl)cc1,inhibition zone (IZ),[16],18 mm
same,inhibition zone (IZ),[17],10 mm
same,inhibition zone (IZ),[24],20 mm
Cc1ccc(C(C)C)cc1OCC(=O)NCCN1CCN(C)CC1,IC50,[8],1.93 µM
same,IC50,[9],0.05 µM
Cc1cc(Cc2cc(C)c(O)cc2C(C)C)c(C(C)C)cc1O,IC50,[13],122 µg/mL

# Reference: ChEMBL document CHEMBL5576070, “The recent discovery of a promising pharmacological scaffold derived from carvacrol: A review” (Bioorg Med Chem Lett, 2024)
